# Laboratory results taken from ChEMBL document CHEMBL1157539, “Thousands of chemical starting points for antimalarial lead identification” (Nature, 2010).
# Non-standard residues stand in square brackets, D forms with d. Residues, ends and D or L forms follow the SMILES beside them. *: point of attachment. Butanoyl(4-(4-HOPh)) = O=C(CCCc1ccc(O)cc1)*
# Tested on: Plasmodium falciparum
# Experiment: GSK_TCMDC: Inhibition of Plasmodium falciparum 3D7 in whole erythrocytes, using parasite LDH activity as an index of growth.
# Type: functional, organism-based
# Conditions: not given
row,Structure (SMILES),XC50 [nM]
1,Cc1ccc(CC(C)NCC(O)c2cccc(C(F)(F)F)c2)cc1 (stereo not drawn),709

# Same assay, conditions: Plasmodium falciparum, 3D7
row,Structure (SMILES),XC50 [nM]
1,O=C(/C=C/c1ccc(Cl)c(Cl)c1)NCCCCCN1CCC(c2c[nH]c3ccccc23)CC1,781
2,O=C(NCC(=O)N1CCC[C@H]1C(=O)O)[C@@H](Cc1ccccc1)NC(=O)[C@@H]1CCCN1C(=O)CCCc1ccc(O)cc1 ({Butanoyl(4-(4-HOPh))}-P[dF]GP-OH),1050
3,Nc1ncc(-c2ccc3ncccc3c2)c(N)n1,918
4,CCCC(C)Nc1nc(C)cc(NCCC(=O)Nc2ccccc2)n1 (stereo not drawn),959
5,COc1cc(C(=O)NCc2nn(CCN3CCC(N4CCCC4)CC3)cc2-c2ccc(Cl)c(Cl)c2)cc(OC)c1OC,774
6,O=S(=O)(NCCN1CCCC1)c1cccc(-c2cccc(CNCc3ccsc3)c2)c1,872
7,COCCNCc1cccc(-c2ccc(CN(C(=O)NC3CCCCC3)C3CCN(Cc4ccccc4)CC3)cc2)c1,759
8,Nc1cccc(CNCc2cccc(-c3csc(-c4nc5ccccc5[nH]4)c3)c2)c1,685
9,CCN(CCCN1CCCCC1)c1cc(C)nc(Nc2ccc(Oc3ccccc3)cc2)n1,298
10,O=S(=O)(NCCN1CCCC1)c1ccc(-c2ccc(CNC3Cc4ccccc4C3)cc2)cc1F,999
11,CN1CCc2cc(O)c(NS(=O)(=O)c3ccc(-c4ccc(Cl)cc4)cc3)cc2CC1,767
12,COc1ccc(OC)c(C(O)C(C)NCc2cc(Cl)ccc2O)c1 (stereo not drawn),382
13,Cc1cc(N[C@@H](Cc2ccccc2)C(=O)NCc2cccs2)nc(NCCOc2ccccc2)n1,1480
14,O=C(Nc1ccc(OC2CCN(Cc3ccsc3)C2)c(Cl)c1)c1ccsc1 (stereo not drawn),1020
15,O=C(Nc1ccc(C(F)(F)F)cc1)Nc1ccccc1N1CCNCC1,500
16,CN1CCc2cc(NS(=O)(=O)c3ccc(-c4ccc(Cl)cc4)cc3)c(OCCCN3CCCCC3)cc2CC1,961
17,CN1CCN(Cc2ccc(-c3cc4nccc(Nc5ccc(Oc6ccccc6)cc5)c4cc3Cl)o2)CC1,979
18,OC(CN1c2ccccc2Sc2ccccc21)CN(C1CCCCC1)C1CCCCC1 (stereo not drawn),651
19,Cc1ccccc1C1CCN(C2CCC(NC(=O)c3csc(-c4cccc(Cl)c4)n3)CC2)CC1 (stereo not drawn),1150
20,CC[C@H]1CN2CC[C@H]1C[C@H]2[C@H](O)c1cc(N2CCCC(C(=O)N(CC)CC)C2)nc2ccc(OC)cc12 (stereo partly drawn),73.1
21,CCN(CC)CCN(Cc1ccc(-c2ccc(C(F)(F)F)cc2)cc1)C(=O)Cn1c(CCc2ccc(F)cc2)nc(=O)c2ccccc21,1070
22,O=C(/C=C/c1ccc(Cl)c(Cl)c1)NCCCCCN1CCC(NC(=S)Nc2ccc(F)cc2F)CC1,805
23,NC1CCCN(Cc2cccc(-c3ccc(-c4nc5ccccc5[nH]4)cc3)c2)C1 (stereo not drawn),722
24,CON=Cc1ccn(-c2ccc(O)c3c2C[C@H]2C[C@H]4[C@H](N(C)C)C(O)=C(C(N)=O)C(=O)[C@@]4(O)C(O)=C2C3=O)c1,773
25,O=c1cc(NCCCNCc2cc(F)cc(C(F)(F)F)c2)[nH]c2ccccc12,1200

row,Structure (SMILES),XC50 [nM]
1,CC(C)c1sc(N2CCN(C)CC2)nc1C(=O)Nc1ccc(F)cc1C(F)(F)F,190
2,COc1ccc(CC2(c3ccc(F)cc3)N=C(N)N(CCCc3ccccc3)C2=O)cc1 (stereo not drawn),613
3,COc1cc(-c2nc(-c3ccncc3)c(-c3ccc4c(c3)CCC4=NO)[nH]2)ccc1OCCN1CCCCC1,789
4,NC(CC1CC(=O)N1CC(=O)O)C(=O)O (stereo not drawn),156
5,O=C(/C=C/c1ccc(Cl)c(Cl)c1)NCCCCCCN1CCN(C(=O)Nc2ccc(Cl)c(Cl)c2)CC1,931
6,Cc1cccc2c(CON3C(N)=NC(N)=NC3(C)C)cccc12,3.2
7,CC1(CCCCN2CCC(c3c[nH]c4cnccc34)CC2)C(=O)Nc2cccc(Cl)c21 (stereo not drawn),868
8,CCOC(=O)CNCC(=O)c1ccc(OCc2ccccc2)cc1,161
9,Cc1cc(NCCc2ccccc2)nc(NC(=N)Nc2cccc(Cl)c2)n1,181
10,CCCCCN1CCC(NS(=O)(=O)c2cccc(C(=O)Nc3ccc(Cl)cc3)c2)CC1,918
11,CN(C)C1CCN(CC#Cc2cc3ncnc(Nc4ccc(OCc5cccc(F)c5)c(Cl)c4)c3s2)CC1,887
12,O=C(Nc1cccc(-c2nn3ncccc3c2-c2ccnc(Nc3cccc(-c4cnco4)c3)n2)c1)c1c(F)cccc1F,166
13,CCc1cn2c3c(cc(C(=O)N[C@@H](Cc4cccc(F)c4)[C@H](O)CNC4CCOCC4)cc13)N(C)S(=O)(=O)CC2,68.1
14,COc1cc(CCOc2c(C)nc(N)nc2N)cc(OC)c1OC,23.8
15,O=[N+]([O-])c1cccc(C=NNc2nc(=Nc3ccccc3)[nH]c(=Nc3ccccc3)[nH]2)c1,968
16,O=c1cc(NCCCNC2CCOc3c(I)cc(Cl)cc32)[nH]c2ccccc12 (stereo not drawn),832
17,O=C(Nc1ccccc1Cl)c1cc2ccccc2cc1O,1010
18,COc1ccc(C2C(C(=O)Nc3ccc(C)cc3Br)c3ccccc3C(=O)N2C)cc1 (stereo not drawn),941
19,CN1CCN(c2ccc(-c3cccc(NC(=O)c4ccc5ccccc5c4)c3)nn2)CC1,383
20,CNC(=O)c1cnc(Nc2ccc(N3CCN(C)CC3)cc2)nc1Nc1cccc([N+](=O)[O-])c1,288
21,CCCCc1ccc(-c2ccc3[nH]c(C)c(Br)c(=O)c3c2)cc1,105
22,Cc1cccc2nc(-c3cccc(-c4ccc(NC(=O)NCc5ccccc5)cc4)c3)[nH]c12,231
23,Cc1nc(N)nc(N)c1CCCOc1cccc(Cl)c1,476
24,O=C(Nc1ccc(F)cc1)NC1CCN(c2ccnc3cc(Cl)ccc23)C1 (stereo not drawn),218
25,O=C(Nc1cccnc1)c1cn(-c2ccccc2)nc1-c1cccs1,869

row,Structure (SMILES),XC50 [nM]
1,Cc1cc(NC(=O)c2ccc(S(=O)(=O)N(Cc3ccccc3)C(C)C)cc2)no1,847
2,COc1ccc(Nc2nccc(NCC(O)c3cccc(C(F)(F)F)c3)n2)cc1 (stereo not drawn),886
3,Cc1nc(-c2cccc(Nc3nccc(NCC(O)c4ccc(C(F)(F)F)cc4)n3)c2)cs1 (stereo not drawn),511
4,c1ccc(C2CCC(N3CCC(N4CCN(c5ccccc5)CC4)CC3)CC2)cc1 (stereo not drawn),764
5,CCNC(=O)N1CCc2ccc(Oc3nc(NCc4ccccc4OC)ncc3C)cc2CC1,1070
6,COc1ccc2nccc([C@@H](O)CN3CCC(NCc4cc5ccccc5s4)CC3)c2c1,347
7,CCc1c(C)nc2nc(Cc3cccc(F)c3)nn2c1N1CCN(c2ccccn2)CC1,750
8,COc1ccc2nccc([C@@H](O)CN3CCC(NC(=O)c4ccc(CN5CCN(c6cccc(C)c6)CC5C)cc4)CC3)c2c1 (stereo partly drawn),211
9,Oc1ccc2nc(Nc3ccccc3)nc(NCCc3ccccc3)c2c1,152
10,COc1cc(C=CC(=O)N2CCC3(CC2)CC(=O)c2ccccc2O3)cc(OC)c1OC,761
11,O=C(NCCN1CCCCC1)c1ccc(Nc2nccc(Nc3ccc(Oc4ccccc4)cc3)n2)cc1,553
12,COc1cc(C=CC(=O)N2CCN(Cc3cccc(C)c3)CC2)ccc1OCc1c(C)noc1C,1030
13,O=[N+]([O-])c1nc(Br)n(Cc2ccc(Cl)cc2)n1,360
14,CN1CCC(c2c[nH]c3ccc(NC(=O)Nc4ccc(-c5ccncc5)c(Cl)c4Cl)cc23)CC1,696
15,COC(=O)c1ccc(CC(C)NCC(O)c2cccc(I)c2)cc1 (stereo not drawn),1320
16,CCc1cc(Cc2cnc(N)nc2N)cc(CC)c1OC,1130
17,CCCCCN1CCCN(Cc2cccc(NC(=O)c3cc4ccccc4s3)c2)CC1,594
18,Cc1ccc(NC(=O)c2ccc3ncccc3c2)cc1OC1CCN(CCC(C)C)C1 (stereo not drawn),351
19,C[C@@H](N/C(=N\c1ccc(-c2ccccc2)cc1)Nc1ccc(C#N)cc1O)c1ccc(Br)cc1,699
20,O=C(Nc1cccc(-c2ccc(CN3CCCC3)cc2)c1)c1cccc(F)c1,783
21,CN1CCN(CCNc2c3ccccc3nc3ccc4ccccc4c23)CC1,534
22,CCc1cn(CCS(C)(=O)=O)c2ccc(C(=O)N[C@@H](Cc3ccccc3)[C@H](O)CNC(C)(C)CCCC(C)C)cc12,877
23,CCCC(=O)Nc1ccc(OCCCCN(CC(C)(C)C)c2ccc(C#N)c(C(F)(F)F)c2)cc1,1350
24,CCOC(=O)COc1cccc(CNc2ccc3nc(N)nc(N)c3c2)c1,408
25,O=C(NCCCCN1CCC(c2cccc3ccccc23)CC1)c1ccc(NC(=O)c2ccc(Cl)cc2)cc1,784

row,Structure (SMILES),XC50 [nM]
1,O=C(Nc1ccc(N2CCN(Cc3ccccc3)CC2)cc1)c1cccs1,769
2,CC(C)c1ccc(-c2nc3cc(Cl)cnc3[nH]2)cc1,857
3,c1cc(CNC2Cc3ccc(-c4cccs4)cc3C2)cc(-n2ccnc2)c1 (stereo not drawn),594
4,Nc1ccnc(N2CCC(CCOc3ccnc4cc(Cl)ccc34)CC2)c1,1160
5,CCN(C(=O)NC)C1c2cc(C#N)ccc2OC(C)(C)C1O (stereo not drawn),304
6,Cc1ccccc1C1CCN(C2CCC(NC(=O)/C=C/c3cccc(Cl)c3)CC2)CC1 (stereo not drawn),891
7,Cc1ccc(NC(=O)c2cnc(N3CCN(c4ccncc4)CC3)c(Cl)c2)cc1,965
8,COc1cc2nc(N3CCC(NC(=O)c4cccc(N(C)C)c4)CC3)nc(N)c2cc1OC,614
9,N#C/N=C(\NCCCCCCCCN/C(=N\C#N)NCCSCc1csc(N=C(N)N)n1)NCCCSc1csc(N=C(N)N)n1,844
10,OCCN1CCN(Cc2ccc(-c3cccc(-c4nc5ccccc5[nH]4)c3)cc2)CC1,749
11,Cc1ccccc1C1=CCN(CCCN2c3ccccc3Sc3ccc(Cl)cc32)CC1,871
12,Cc1cc(C2CCN(CCCCNC(=O)c3ccc(NC(=O)c4ccc(Cl)cc4)cc3)CC2)c(C)cc1OCCN(C)C,766
13,CCOC(=O)C1=C(C)N=c2sc(=Cc3cc(Cl)ccc3O)c(=O)n2C1c1cc(OC)c(OC)cc1Br (stereo not drawn),993
14,Oc1ccc(Nc2ccnc3cc(Cl)ccc23)cc1,744
15,CC(=O)N[C@H](C(=O)Nc1cccc(-c2ccc(-c3nc4cccc(C)c4[nH]3)s2)c1)C(C)C,760
16,CCCOc1ccc(CCNCCCCNCCc2ccc(OCCC)c3ccccc23)c2ccccc12,917
17,COc1ccc(CNc2ncnc3c2[nH]c2ccc(F)cc23)cc1,980
18,O=C(Nc1ccc(-c2nc3ccccc3[nH]2)cc1)C1CCCN(CC2CC2)C1 (stereo not drawn),946
19,O=c1cc(NCCCNCc2ccc(Cl)c(Cl)c2)[nH]c2ccc(C(F)(F)F)cc12,524
20,CN(C)CCCN1CCN(Cc2ccc(-c3ccc(-c4nc5ccccc5[nH]4)s3)cc2)CC1,820
21,CC(=O)c1cccc2c(NC(=O)Nc3ccc4nccc(N5CCN(C)CC5)c4c3)cccc12,400
22,O=C(Nc1ccccc1)Nc1cccc(-c2cccc(-c3nc4cc(F)ccc4[nH]3)c2)c1,176
